Common to all, as to type: in vivo
The test system of one data set is Scirpus juncoides. Briefly: Test Example 2: herbicidal activity, application during weed generation in submerged conditions. As to conditions: Eighteenth Table; application herbicide amount 320 g/ha. An outline of the steps:
(§1)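 Seeds were sown together in alluvial soil kept under 4 cm of water and grown at 25 °C to 30 °C. Once plants reached the one- to two-leaf stage, the diluted emulsion was applied to the water surface at a predetermined g/ha amount, and effects were rated 0–5 after three weeks.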

The next data set concerns Monochoria vaginalis. Described as above. As to conditions: Eighteenth Table; application herbicide amount 320 g/ha. An outline of the steps: as §1
Data set [1] deals with Echinochloa oryzacola Vasing. The description is as above. As to conditions: Eighteenth Table; application herbicide amount 320 g/ha. An outline of the steps: as §1
For data set [2], the system named is directly sowed Oryza sativa. Briefly: Test Example 3: effect on crop by application to foliage (Wagner pot, water depth 0.1-0.5 cm). To be noted: Nineteenth Table; application to foliage; application herbicide amount 320 g/ha. An outline of the steps:
(§2)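 Seeds were sown in alluvial soil in Wagner pots, grown for 14 days at 25–30 °C, then sprayed uniformly on foliage with the emulsified compound diluted to a given rate per hectare. Injury was graded three weeks after treatment from 0 (≤5%) to 5 (≥90%).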

Data set [3] relates to Echinochloa crus-galli var. crus-galli. The data set is described as follows: Test Example 3: herbicidal effect by application to foliage (Wagner pot, water depth 0.1-0.5 cm). To be noted: Nineteenth Table; application to foliage; application herbicide amount 320 g/ha. The procedure, abridged:
as §2

Another data set concerns Cyperus difformis. The data set is described as above. As to conditions: Nineteenth Table; application to foliage; application herbicide amount 320 g/ha. An outline of the steps: as §2
For the next data set, the system named is Leptochloa chinensis. Described as above. To be noted: Nineteenth Table; application to foliage; application herbicide amount 320 g/ha. The procedure, abridged:
as §2

The subject of data set [4] is transplanted Oryza sativa. Briefly: Test Example 1: effect on crop, application before weed generation in submerged conditions. To be noted: Application herbicide amount 320 g/ha; Seventeenth Table. The procedure, abridged:
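Water-diluted emulsion formulation is applied onto flood water (4 cm deep) covering alluvial soil on the day weed seeds are sown, after transplanting 2.5 leaf stage rice. Rates are expressed per hectare. Injury or control is graded 0–5 three weeks later.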

Experimental findings from US9708314B2, “Heterocyclic amide compound” (NISSAN CHEMICAL INDUSTRIES, LTD., priority 2013, dated 2017) are described below.

Each structure is given as a SMILES string.

As to `Cn1nnnc1NC(=O)c1ccc(C(F)(F)F)n2c(SCC(F)(F)F)nnc12` [2-087], the “B (Scirpus juncoides) herbicidal ratio grade” value in the data set on Scirpus juncoides was 4 (Herbicidal ratio of 70% or more and less than 90%). The “C (Monochoria vaginalis) herbicidal ratio grade” value in the data set with Monochoria vaginalis is 3 (Herbicidal ratio of 40% or more and less than 70%). In addition, the “A (Echinochloa oryzicola Vasing.) herbicidal ratio grade” value in data set [1] is 4 (Herbicidal ratio of 70% or more and less than 90%). In addition, the “b (effect on crop grade)” value in data set [2] was 3 (Herbicidal ratio of 40% or more and less than 70%). In data set [3], the “H (herbicidal effect grade)” value is 5 (Herbicidal ratio of 90% or more (almost completely withered)). Also, the “E (herbicidal effect grade)” value in the data set on Cyperus difformis is listed as 5 (Herbicidal ratio of 90% or more (almost completely withered)). In addition, in the data set with Leptochloa chinensis, the “D (herbicidal effect grade)” value was 5 (Herbicidal ratio of 90% or more (almost completely withered)). Besides, in data set [4], the “a: transplanted Oryza sativa (effect on crop grade)” value was 3 (Herbicidal ratio of 40% or more and less than 70%).

Consider `CC(C)N(C)c1nnc2c(C(=O)Nc3nnnn3C)ccc(C(F)(F)F)n12` [2-082], for which the “B (Scirpus juncoides) herbicidal ratio grade” value in the data set with Scirpus juncoides was 4 (Herbicidal ratio of 70% or more and less than 90%). The “C (Monochoria vaginalis) herbicidal ratio grade” value in the data set with Monochoria vaginalis was 3 (Herbicidal ratio of 40% or more and less than 70%). Also, the “A (Echinochloa oryzicola Vasing.) herbicidal ratio grade” value in data set [1] is on record as 5 (Herbicidal ratio of 90% or more (almost completely withered)). In data set [2], the “b (effect on crop grade)” value is 5 (Herbicidal ratio of 90% or more (almost completely withered)). In addition, the “H (herbicidal effect grade)” value in data set [3] is on record as 5 (Herbicidal ratio of 90% or more (almost completely withered)). Moreover, in the data set with Cyperus difformis, the “E (herbicidal effect grade)” value is on record as 5 (Herbicidal ratio of 90% or more (almost completely withered)). The “D (herbicidal effect grade)” value with Leptochloa chinensis is 5 (Herbicidal ratio of 90% or more (almost completely withered)). In addition, the “a: transplanted Oryza sativa (effect on crop grade)” value in data set [4] was 5 (Herbicidal ratio of 90% or more (almost completely withered)).
